In US12421228B2 (Mirati Therapeutics, Inc., priority 2019, dated 2025) one finds IC50 data, which are given here for 16 compounds.

For test [1], the system named is PRC2-mediated histone H3 methylation in Pfeiffer cells (EZH2 A677G). Kind of test: Tri-Methyl Histone H3 (Lys 27) sandwich ELISA in Pfeiffer cells. Type of test: cell-based. As to conditions: Homo sapiens, 96 hours incubation, H3K27me3 ELISA, read-out: IC50 (nM), Inhibition of EZH2-mediated Histone H3 Trimethylation. The text has this:
The Pfeiffer cell line was established from a […] from a patient having metastatic diffuse large B-cell lymphoma (DLBCL). This cell line expresses a mutant form of the EZH2 enzyme (A677G) that results in enhanced EZH2 activity leading to increased methylation of histone H3 Lys27. Increased trimethylation of histone H3 Lys27 is believed to be implicated in tumorgenesis and poor clinical prognosis in lymphomas (McCabe et al., (2012) Nature 492:108-112).
Inhibition of PRC2-mediated histone H3 methylation by compounds of Formula (I) was measured by ELISA using a Tri-Methyl Histone H3 (Lys 27) Sandwich ELISA Kit (Cell Signaling Tech #7866C) in accordance with the manufacturer's instructions. Briefly, Pfeiffer cells were cultured in RPMI medium supplemented with 10% fetal bovine serum and 1% penicillin and 1% streptomycin in 96 well culture plates at 37° C. to a density of 8000 cells/90 μl/well and the cells were harvested. A series of 3-fold serial dilutions of each test compound of Formula (I) were prepared in RPMI medium and added to the cells at final concentrations ranging from […] to 0.15 nM. The plates were incubated at 37° C. for 96 hours.
After incubation, the cells were pelleted by centrifugation in a pre-cooled 4° C. rotor at 1,100 rpm for 10 min and the supernatant was removed by aspiration. The cell pellet was resuspended in 55 μl of Lysis Buffer (0.4M HCl) and incubated on ice with periodic shaking for 30 minutes. The lysed cells were subjected to centrifugation at 4,200 rpm for 10 min at 4° C. and the supernatant containing acid-soluble proteins was collected and the remainder discarded. The acid-soluble proteins were brought to a neutral pH by the addition of 20 μl of Neutralization Buffer (1 M Sodium phosphate, dibasic (pH 12.5), 2.5 mM DTT and 1 mM PMSF) and the neutralized lysates were analyzed by ELISA.
A 65 μl aliquot of each cell lysate was added to a well of a microwell strip, the microwells were sealed using tape and incubated either at 37° C. for two hours or at 4° C. overnight. After incubation, the tape was removed at the microwells were washed four times using 200 μl of 1× Wash Buffer. To each washed microwell, a 100 μl aliquot of an anti-trimethyl histone H3 Lys27 Detection Antibody solution was added and the microwells were incubated at 37° C. for one hour. The Detection Antibody solution was removed by aspiration and the wells were washed four times each using 200 μl of 1× Wash Buffer.
A 100 μl aliquot of an HRP-linked secondary antibody was added to each well, the wells were sealed with tape and incubated at 37° C. for 30 min. The HRP-linked secondary antibody solution was removed by aspiration and the wells were washed four times using 200 μl of 1× Wash Buffer. A 100 μl aliquot of a TMB substrate was added to each well, the wells were sealed with tape and incubated at 37° C. for 10 min or 25° C. for 30 min. The reaction was stopped by the addition of 100 μl aliquot of a STOP solution and the plate was shaken briefly. The degree of histone H3 trimethylation was determined using a spectrophotometric readout by measuring the absorbance at 450 nm and then calculating the amount of trimethylated histone H3. A=≤100 nM; B=>100 nM−≤500 nM; C=>500 nM and N.D.=not determined.
On the technique in general: ELISA stands for enzyme-linked immunosorbent assay.

Test [2] concerns the target purified human, His-tagged PRC2 complex (Homo sapiens (Human), UniProt O75530). In words: Hot Spot HMT assay, inhibition of PRC2 enzymatic activity. Type of test: biochemical. As to conditions: 10 nM PRC2 complex, 0.05 mg/ml core histone H3, 1 μM 3H-SAM, 1 hr at 30° C.; read-out: IC50, Inhibition of PRC2-mediated Enzymatic Activity. As to the method: Ten-point dose-response curves for compounds of the present invention were determined using a Hot Spot HMT assay (Reaction Biology Corp; see Horiuchi et al., Assay Drug Dev Technol. (2013) 4: 227-236 doi: 10.1089/adt.2012.480). The assay uses purified human, His-tagged PRC2 complex, including N-terminal His-tagged EZH2 enzyme, N-terminal Flag-tagged embryonic ectoderm development protein (EED), N-terminal His-tagged suppressor of zeste 12 (SUZ12), N-terminal His-tagged AEBP2, and N-terminal His-tagged RbAp48. In this assay, the transfer of the tritiated methyl group from radiolabeled S-adenosyl methionine (SAM) to purified core histone protein by EZH2 is quantitated after filtration to determine the activity of the core PRC2 complex in the presence and absence of compound.
Briefly, compounds of the present invention were solubilized in DMSO and a series of 10, three-fold serial dilutions were made for each compound in 15% DMSO. The initial starting concentration for the serial dilutions of each compound was 1.0 μM. Control samples lacking compound, EZH2 enzyme or various reaction components also were prepared and processed in parallel with compound test samples. SAH (S-(5-adenosyl)-L-homocysteine) was used as a positive control for assay validation.
An aliquot of each serial dilution of test compound was added to deep 384 well plate using Acoustic Technology instrument (Echo 550, LabCyte) containing reaction buffer (50 mM Tris-HCl (pH 8)), 0.01% Brij35, 1 mM EDTA, 1 mM DTT, 1 mM PMSF and 1% DMSO), 10 nM purified PRC2 complex and 0.05 mg/ml core histone H3 in a 5 μl volume. The reaction was mixed gently and then pre-incubated for 20 min at 30° C. The enzymatic reaction was initiated by adding 1 μM S-Adenosyl-L-[methyl-^3H]methionine and incubated for 1 hr at 30° C. After 1 hr, the reaction product was detected using a filter binding method and the amount of tritiated H3 core histone was quantitated using a scintillation counter. The IC50 value for each compound was determined from each 10-point dose-response curve using GraphPad Prism software and the results for compounds of present invention, including compounds of Formula (I) and Formula (II) are shown in Table 6. Key: A=<100 nM; B=>100 nM−<250 nM; and C=>250 nM.

Test [3] concerns Karpas 422 cells (EZH2 Y641N). Kind of test: Karpas 422 cell viability (Cell Titre Glo). Type of test: cell-based. To be noted: Homo sapiens, CTG viability, Day 4, Day 7 or Day 11 (time point not given), read-out: IC50 (nM), Inhibiting Proliferation of Cells Expressing an Activating Mutant Form of EZH2. The procedure: Karpas 422 cell line is a human B cell non-Hodgkin's lymphoma cell line established from a patient having DLBCL. This EZH2 heterozygotic cell line expresses a mutant form of EZH2 enzyme (Y641N) that increases histone H3 methylation and this mutation has been implicated in the tumorgenesis of lymphomas, such as DLBCL.
Karpas 422 cells (PHE cat no., 06101702) were cultured in RPMI medium supplemented with 20% fetal bovine serum and 1% penicillin/1% streptomycin and plated at a density of 1000 cells/90 μl/well in 96 well white assay plates. A dose response curve for compounds of the present invention was determined by adding a 10 μl aliquot of stock solutions of varying concentrations of compounds to the same medium in each well, over a concentration range of 10 μM using 3-fold dilutions to a final concentration of 1.5 nM. The plates were incubated at 37° C. for predetermined time periods, Day 4, Day 7, or Day 11, and the viability of the cells was measured using a CTG assay kit (Cell Titre Glo; Promega cat. no G7573) on Day 4 and Day 7 in accordance with the manufacturer's instructions.
For the viability assay for the Day 11 plates, the plates were subjected to centrifugation at 1100 rpm for five minutes on Day 7 and the supernatant was removed by aspiration. The cells were resuspended in 90 μl aliquot of the appropriate growth medium lacking the compound followed by addition of 10 μl of a 10× stock of the same compound at the same concentration. The viability of the Day 11 cells was measured using the CTG assay kit described above in accordance with the manufacturer's instructions. The IC50 values for each compound at each predetermined time point were calculated using Graph pad PRISM software and the results are shown in Table 8. A=≤250 nM; B=[…]−≤500 nM; C=>500 nM and N.D.=not determined.

Molecules are shown by their SMILES.

Chain of purified human, His-tagged PRC2 complex (Q15910 whole entry): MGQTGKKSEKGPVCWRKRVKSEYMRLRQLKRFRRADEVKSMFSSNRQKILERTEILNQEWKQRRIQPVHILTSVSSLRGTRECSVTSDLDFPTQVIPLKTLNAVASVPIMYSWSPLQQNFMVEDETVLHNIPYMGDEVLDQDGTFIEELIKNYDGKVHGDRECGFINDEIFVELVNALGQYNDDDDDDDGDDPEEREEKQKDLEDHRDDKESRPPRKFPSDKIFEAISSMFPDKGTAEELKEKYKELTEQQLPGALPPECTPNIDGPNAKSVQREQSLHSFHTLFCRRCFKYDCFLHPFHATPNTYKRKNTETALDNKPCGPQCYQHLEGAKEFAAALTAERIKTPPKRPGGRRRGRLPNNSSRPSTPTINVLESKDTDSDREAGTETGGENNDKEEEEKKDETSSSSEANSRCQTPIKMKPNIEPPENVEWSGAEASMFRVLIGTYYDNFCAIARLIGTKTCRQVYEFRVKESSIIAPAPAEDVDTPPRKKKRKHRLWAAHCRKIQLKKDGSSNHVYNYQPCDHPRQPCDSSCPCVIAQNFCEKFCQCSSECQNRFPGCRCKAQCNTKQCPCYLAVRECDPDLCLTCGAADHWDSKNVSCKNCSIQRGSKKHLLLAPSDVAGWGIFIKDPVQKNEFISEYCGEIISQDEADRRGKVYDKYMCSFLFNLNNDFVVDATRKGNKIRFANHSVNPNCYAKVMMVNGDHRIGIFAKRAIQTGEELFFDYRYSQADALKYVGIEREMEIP
Chain of purified human, His-tagged PRC2 complex (O75530 whole entry): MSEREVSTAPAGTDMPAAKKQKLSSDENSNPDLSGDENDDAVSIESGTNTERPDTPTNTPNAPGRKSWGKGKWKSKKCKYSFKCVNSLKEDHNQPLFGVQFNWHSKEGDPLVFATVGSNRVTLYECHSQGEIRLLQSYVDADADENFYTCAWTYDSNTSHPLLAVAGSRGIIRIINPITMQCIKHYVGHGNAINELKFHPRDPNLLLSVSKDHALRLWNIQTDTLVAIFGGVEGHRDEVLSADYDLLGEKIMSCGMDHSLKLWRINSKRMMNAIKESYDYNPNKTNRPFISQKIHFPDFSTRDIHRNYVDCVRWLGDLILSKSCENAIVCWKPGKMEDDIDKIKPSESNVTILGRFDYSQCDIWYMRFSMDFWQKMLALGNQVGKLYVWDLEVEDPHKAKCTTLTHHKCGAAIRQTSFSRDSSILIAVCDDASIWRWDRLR
Chain of purified human, His-tagged PRC2 complex (Q15022 whole entry partner): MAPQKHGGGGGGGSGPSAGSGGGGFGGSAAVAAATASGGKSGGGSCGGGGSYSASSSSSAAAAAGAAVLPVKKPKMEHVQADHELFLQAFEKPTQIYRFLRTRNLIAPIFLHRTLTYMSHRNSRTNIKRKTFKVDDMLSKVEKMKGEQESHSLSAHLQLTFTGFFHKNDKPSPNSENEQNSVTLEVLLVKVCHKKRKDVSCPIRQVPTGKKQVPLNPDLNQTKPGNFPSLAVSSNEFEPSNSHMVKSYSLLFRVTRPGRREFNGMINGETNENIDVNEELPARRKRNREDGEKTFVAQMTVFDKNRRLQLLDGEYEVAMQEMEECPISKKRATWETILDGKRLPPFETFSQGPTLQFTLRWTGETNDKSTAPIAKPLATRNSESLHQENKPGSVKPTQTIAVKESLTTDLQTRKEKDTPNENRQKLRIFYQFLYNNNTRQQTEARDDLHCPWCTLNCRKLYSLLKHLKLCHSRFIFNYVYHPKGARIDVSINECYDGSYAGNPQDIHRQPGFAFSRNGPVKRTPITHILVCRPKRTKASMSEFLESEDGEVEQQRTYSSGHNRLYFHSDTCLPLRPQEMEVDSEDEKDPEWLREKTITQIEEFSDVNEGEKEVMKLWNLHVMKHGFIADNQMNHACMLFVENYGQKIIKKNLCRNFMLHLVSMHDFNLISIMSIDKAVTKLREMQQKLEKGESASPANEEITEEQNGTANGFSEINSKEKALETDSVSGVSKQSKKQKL
Chain of purified human, His-tagged PRC2 complex (Q6ZN18 whole entry partner): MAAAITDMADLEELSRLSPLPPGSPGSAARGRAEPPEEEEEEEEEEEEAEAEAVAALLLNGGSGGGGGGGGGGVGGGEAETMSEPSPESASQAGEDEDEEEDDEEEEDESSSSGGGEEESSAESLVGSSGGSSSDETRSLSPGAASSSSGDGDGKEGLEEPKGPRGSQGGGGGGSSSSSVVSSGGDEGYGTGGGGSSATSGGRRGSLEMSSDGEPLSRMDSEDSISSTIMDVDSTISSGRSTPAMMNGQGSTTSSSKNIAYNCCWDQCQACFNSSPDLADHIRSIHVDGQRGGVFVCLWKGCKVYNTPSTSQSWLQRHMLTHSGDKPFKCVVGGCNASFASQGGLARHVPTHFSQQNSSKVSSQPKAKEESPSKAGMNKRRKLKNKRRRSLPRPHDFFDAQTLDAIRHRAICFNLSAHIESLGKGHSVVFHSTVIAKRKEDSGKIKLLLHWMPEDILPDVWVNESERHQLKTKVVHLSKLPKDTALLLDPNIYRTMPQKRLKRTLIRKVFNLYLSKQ
Chain of purified human, His-tagged PRC2 complex (Q09028 whole entry partner): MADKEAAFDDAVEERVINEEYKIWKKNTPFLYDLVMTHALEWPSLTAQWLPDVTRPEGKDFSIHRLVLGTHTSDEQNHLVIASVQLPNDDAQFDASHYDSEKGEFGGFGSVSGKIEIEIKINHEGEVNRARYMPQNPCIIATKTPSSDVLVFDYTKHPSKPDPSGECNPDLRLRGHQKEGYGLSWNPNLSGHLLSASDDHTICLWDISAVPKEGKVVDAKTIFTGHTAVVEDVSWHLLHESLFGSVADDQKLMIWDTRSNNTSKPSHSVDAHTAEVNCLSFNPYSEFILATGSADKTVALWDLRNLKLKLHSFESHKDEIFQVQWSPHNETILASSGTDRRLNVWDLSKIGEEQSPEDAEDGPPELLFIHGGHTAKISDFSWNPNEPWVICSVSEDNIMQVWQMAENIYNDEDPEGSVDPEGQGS

As to `CN(C)C(=O)c1cc(-c2cnc(NCc3c(F)ccc4c3CCO4)c3cnccc23)n(C)n1` [Example 32, 5-(1-(((5-fluoro-2,3-dihydrobenzofuran-4-yl)methyl)amino)-2,7-naphthyridin-4-yl)-N,N,1-trimethyl-1H-pyrazole-3-carboxamide], the IC50 in test [1] is at most 100 nM; in test [2] it was below 0.1 µM; in test [3] it was at most 250 nM.
Turning to `Cn1nc(C#N)cc1-c1cnc(NCc2c(F)ccc3c2CCO3)c2cnccc12` [Example 33, 5-[1-[(5-fluoro-2,3-dihydrobenzofuran-4-yl)methylamino]-2,7-naphthyridin-4-yl]-1-methyl-pyrazole-3-carbonitrile], the figures for the IC50 in test [1], in test [2] and in test [3] were above 500 nM, 0.1 to 0.25 µM and above 500 nM, respectively.
`COc1cc2c(-c3cc(C)nn3C)cnc(NCc3c(F)ccc4c3CCO4)c2cn1` [Example 34, 4-(1,3-dimethyl-1H-pyrazol-5-yl)-N-((5-fluoro-2,3-dihydrobenzofuran-4-yl)methyl)-6-methoxy-2,7-naphthyridin-1-amine]: the IC50 is above 500 nM in test [1], 0.1 to 0.25 µM in test [2] and above 500 nM in test [3].
For `Cc1cc(-c2cnc(NCc3c(F)ccc4c3CCO4)c3c[nH]c(=O)cc23)n(C)n1` [Example 35, 5-(1,3-dimethyl-1H-pyrazol-5-yl)-8-(((5-fluoro-2,3-dihydrobenzofuran-4-yl)methyl)amino)-2,7-naphthyridin-3(2H)-one], the values for the IC50 in test [1], in test [2] and in test [3] were at most 100 nM, below 0.1 µM and at most 250 nM, respectively.
For `Cc1ncccc1-c1cnc(NCc2c(F)ccc3c2CCO3)c2c[nH]c(=O)cc12` [Example 36], in that order: 100 to 500 nM, above 0.25 µM and at most 250 nM.
On to `O=c1cc2c(-c3ccc(CN4CCCC4)cc3)cnc(NCc3c(F)ccc4c3CCO4)c2c[nH]1` [Example 37], for which the figures for the IC50 in test [1], in test [2] and in test [3] were 100 to 500 nM, 0.1 to 0.25 µM and at most 250 nM, respectively.
The like results for `CN(C)Cc1ccc(-c2cnc(NCc3c(F)ccc4c3CCO4)c3c[nH]c(=O)cc23)cc1` [Example 38] were, in that order, 100 to 500 nM, 0.1 to 0.25 µM and at most 250 nM.
`Cn1nncc1-c1cnc(NCc2c(F)ccc3c2CCO3)c2c[nH]c(=O)cc12` [Example 39]: the IC50 was above 500 nM in test [1], above 0.25 µM in test [2] and above 500 nM in test [3].
Consider `Cc1cc(S(C)(=O)=O)ccc1-c1cnc(NCc2c(F)ccc3c2CCO3)c2c[nH]c(=O)cc12` [Example 40], for which the values for the IC50 in test [1], in test [2] and in test [3] were 100 to 500 nM, 0.1 to 0.25 µM and at most 250 nM, respectively.
On to `Cc1cc(CN(C)C)ccc1-c1cnc(NCc2c(F)ccc3c2CCO3)c2c[nH]c(=O)cc12` [Example 41], for which the IC50 in test [1] was 100 to 500 nM; in test [2], 0.1 to 0.25 µM; in test [3] it was 250 to 500 nM.
The like results for `Cc1cc(-c2cnc(NCc3c(F)ccc4c3CCO4)c3cnc(OC(C)C)cc23)n(C)n1` [Example 43] were, in that order, above 500 nM, above 0.25 µM and above 500 nM.
In the case of `Cc1cc(-c2cnc(NCc3c(F)ccc4c3CCO4)c3cnc(OCCN(C)C)cc23)n(C)n1` [Example 44], the IC50 was 100 to 500 nM in test [1], above 0.25 µM in test [2] and at most 250 nM in test [3].
As to `COCCOc1cc2c(-c3cc(C)nn3C)cnc(NCc3c(F)ccc4c3CCO4)c2cn1` [Example 45], the IC50 was 100 to 500 nM in test [1], 0.1 to 0.25 µM in test [2] and at most 250 nM in test [3].
With `CN(C)CCn1nccc1-c1cnc(NCc2c(F)ccc3c2CCO3)c2c[nH]c(=O)cc12` [Example 46, 5-(1-(2-(dimethylamino)ethyl)-1H-pyrazol-5-yl)-8-(((5-fluoro-2,3-dihydrobenzofuran-4-yl)methyl)amino)-2,7-naphthyridin-3(2H)-one], the values for the IC50 in test [1], in test [2] and in test [3] were 100 to 500 nM, above 0.25 µM and at most 250 nM, respectively.
The like results for `CN(C)C(=O)c1cc(-c2cnc(NCc3c(F)ccc4c3CCO4)c3c[nH]c(=O)cc23)n(C)n1` [Example 47, 5-(1-(((5-fluoro-2,3-dihydrobenzofuran-4-yl)methyl)amino)-6-oxo-6,7-dihydro-2,7-naphthyridin-4-yl)-N,N,1-trimethyl-1H-pyrazole-3-carboxamide] were, in that order, 100 to 500 nM, below 0.1 µM and at most 250 nM.
For `Cn1nc(C#N)cc1-c1cnc(NCc2c(F)ccc3c2CCO3)c2c[nH]c(=O)cc12` [Example 48], in that order: 100 to 500 nM, below 0.1 µM and at most 250 nM.
